Calls of active or inactive are those of the source. The rule behind the calls is not given here.
Legend:
Staphylococcus aureus [1] = test: Antibacterial activity against methicillin-resistant Staphylococcus aureus 11 assessed as bacterial growth inhibition in presence of 50 ug/ml calcium ions by CLSI protocol based broth microdilution method; assay type: functional
Staphylococcus aureus [2] = test: Antibacterial activity against methicillin-resistant Staphylococcus aureus 14 assessed as bacterial growth inhibition in presence of 50 ug/ml calcium ions by CLSI protocol based broth microdilution method; assay type: functional
Staphylococcus aureus [3] = test: Antibacterial activity against methicillin-resistant Staphylococcus aureus 86 assessed as bacterial growth inhibition in presence of 50 ug/ml calcium ions by CLSI protocol based broth microdilution method; assay type: functional
Staphylococcus aureus [4] = test: Antibacterial activity against methicillin-resistant Staphylococcus aureus 88 assessed as bacterial growth inhibition in presence of 50 ug/ml calcium ions by CLSI protocol based broth microdilution method; assay type: functional
Staphylococcus aureus [5] = test: Antibacterial activity against Staphylococcus aureus ATCC 29213 assessed as bacterial growth inhibition in presence of 50 ug/ml calcium ions by CLSI protocol based broth microdilution method; assay type: functional
Enterococcus faecalis [6] = test: Antibacterial activity against Streptococcus faecalis assessed as bacterial growth inhibition in presence of 50 ug/ml calcium ions by CLSI protocol based broth microdilution method; assay type: functional
Enterococcus [7] = test: Antibacterial activity against Enterococcus 6 assessed as bacterial growth inhibition in presence of 50 ug/ml calcium ions by CLSI protocol based broth microdilution method; assay type: functional
Enterococcus [8] = test: Antibacterial activity against Enterococcus 60 assessed as bacterial growth inhibition in presence of 50 ug/ml calcium ions by CLSI protocol based broth microdilution method; assay type: functional
Enterococcus faecalis [9] = test: Antibacterial activity against Enterococcus faecalis ATCC 29212 assessed as bacterial growth inhibition in presence of 50 ug/ml calcium ions by CLSI protocol based broth microdilution method; assay type: functional
Lipid bilayer [10] = test: Binding affinity to POPC/POPG (1:1) large unilamellar vesicles assessed as change in ellipticity […] at 50 uM in presence of phosphatidylglycerol and Ca2+ ions by circular dichroism spectroscopy
Lipid bilayer [11] = test: Binding affinity to POPC large unilamellar vesicles assessed as change in ellipticity […] at 50 uM in presence of phosphatidylglycerol and Ca2+ ions by circular dichroism spectroscopy
Staphylococcus aureus [12] = test: Antibacterial activity against Staphylococcus aureus ATCC 43300 infected in Galleria mellonella larvae assessed as increase in larvae survival at 50 mg/kg measured up to 48 hrs post-infection; assay type: functional, organism-based
[13] = Toxicity in Galleria mellonella larvae infected with Staphylococcus aureus ATCC 43300 assessed as larvae death at 50 mg/kg measured at 36 hrs post-infection; assay type: organism-based; conditions: in vivo
Lipid bilayer [14] = test: Binding affinity to POPC/POPG (1:1) large unilamellar vesicles assessed as close proximity of tryptophan and kynurenine residues at 50 uM in presence of phosphatidylglycerol and Ca2+ ions by circular dichroism spectroscopy
Lipid bilayer [15] = test: Binding affinity to POPC large unilamellar vesicles assessed as close proximity of tryptophan and kynurenine residues at 50 uM in presence of phosphatidylglycerol and Ca2+ ions by circular dichroism spectroscopy
Lipid bilayer [16] = test: Binding affinity to POPC/POPG (1:1) large unilamellar vesicles assessed as conformational changes at 50 uM in presence of phosphatidylglycerol and Ca2+ ions by circular dichroism spectroscopy
Lipid bilayer [17] = test: Binding affinity to POPC large unilamellar vesicles assessed as conformational changes at 50 uM in presence of phosphatidylglycerol and Ca2+ ions by circular dichroism spectroscopy
Staphylococcus aureus [18] = test: Bactericidal activity against Staphylococcus aureus 86 assessed as reduction in colony formation at 8 ug/ml measured at 24 hrs by time-killing assay; assay type: functional, organism-based
Staphylococcus aureus [19] = test: Antibacterial activity against Staphylococcus aureus ATCC 29213 assessed as decrease in mutation prevention concentration measured after 72 hrs; assay type: functional, organism-based

SMILES | MIC (Staphylococcus aureus [1]) [µg/mL] | MIC (Staphylococcus aureus [2]) [µg/mL] | MIC (Staphylococcus aureus [3]) [µg/mL] | MIC (Staphylococcus aureus [4]) [µg/mL] | MIC (Staphylococcus aureus [5]) [µg/mL] | MIC (Enterococcus faecalis [6]) [µg/mL] | MIC (Enterococcus [7]) [µg/mL] | MIC (Enterococcus [8]) [µg/mL] | MIC (Enterococcus faecalis [9]) [µg/mL] | Activity (Lipid bilayer [10]) | Activity (Lipid bilayer [11]) | Activity (Staphylococcus aureus [12]) | Activity [13] | Activity (Lipid bilayer [14]) | Activity (Lipid bilayer [15]) | Activity (Lipid bilayer [16]) | Activity (Lipid bilayer [17]) | Activity (Staphylococcus aureus [18]) | Activity (Staphylococcus aureus [19])
CCCCCCCCCC(=O)N[C@@H](Cc1c[nH]c2ccccc12)C(=O)N[C@@H](CC(N)=O)C(=O)N[C@@H](CC(=O)O)C(=O)N[C@@H]1C(=O)NCC(=O)N[C@@H](CCCN)C(=O)N[C@@H](CC(=O)O)C(=O)N[C@H](C)C(=O)N[C@@H](CCC(=O)O)C(=O)NCC(=O)N[C@H](CO)C(=O)N[C@@H]([C@@H](C)CC(=O)O)C(=O)N[C@@H](CC(=O)c2ccccc2N)C(=O)O[C@@H]1C | ≥ 32 | ≥ 32 | ≥ 32 | ≥ 32 | ≥ 32 | ≥ 32 | ≥ 32 | ≥ 32 | ≥ 32 | Active | Active | – | – | – | – | – | – | – | –
CCCCCCCCCC(=O)N[C@@H](Cc1c[nH]c2ccccc12)C(=O)N[C@H](CC(N)=O)C(=O)N[C@@H](CC(=O)O)C(=O)N[C@@H]1C(=O)NCC(=O)N[C@@H](CCCN)C(=O)N[C@@H](CC(=O)O)C(=O)N[C@H](C)C(=O)N[C@@H](CC(=O)O)C(=O)NCC(=O)N[C@H](CO)C(=O)N[C@@H]([C@H](C)CC(=O)O)C(=O)N[C@@H](CC(=O)c2ccccc2N)C(=O)O[C@@H]1C | 0.5 | 0.5 | 0.5 | 0.25 | 0.25 | 4 | 2 | 2 | 4 | – | – | inactive | Toxic | Active | Active | Active | Active | – | –
CCCCCCCCCC(=O)N[C@@H](Cc1c[nH]c2ccccc12)C(=O)N[C@@H](CC(N)=O)C(=O)N[C@@H](CC(=O)O)C(=O)N[C@@H]1C(=O)NCC(=O)N[C@@H](CCCN)C(=O)N[C@@H](CC(N)=O)C(=O)N[C@H](C)C(=O)N[C@@H](CC(N)=O)C(=O)NCC(=O)N[C@H](CO)C(=O)N[C@@H]([C@@H](C)CC(=O)O)C(=O)N[C@@H](CC(=O)c2ccccc2N)C(=O)O[C@@H]1C | ≥ 32 | ≥ 32 | ≥ 32 | ≥ 32 | ≥ 32 | ≥ 32 | ≥ 32 | ≥ 32 | ≥ 32 | Active | Active | – | – | – | – | – | – | – | –
CCCCCCCCCC(=O)N[C@@H](Cc1cn(C)c2ccccc12)C(=O)N[C@@H](CC(N)=O)C(=O)N[C@@H](CC(=O)O)C(=O)N[C@@H]1C(=O)NCC(=O)N[C@@H](CCCN)C(=O)N[C@@H](CC(=O)O)C(=O)N[C@H](C)C(=O)N[C@@H](CC(=O)O)C(=O)NCC(=O)N[C@H](CO)C(=O)N[C@@H]([C@@H](C)CC(=O)O)C(=O)N[C@@H](CC(=O)c2ccccc2N)C(=O)O[C@@H]1C | – | – | – | – | – | – | – | – | – | – | – | – | – | – | – | – | – | Active | Active
